Assay results: article PMC9148072, “Design, Cytotoxicity and Antiproliferative Activity of 4-Amino-5-methyl-thieno[2,3-d]pyrimidine-6-carboxylates against MFC-7 and MDA-MB-231 Breast Cancer Cell Lines” (Molecules, 2022)
In brackets after ≈: the same amount, converted by molar mass. Read-outs that look alike come from different tables or passages of the source. Blank lines part the entries; values can stand above or below the compound they belong to.

Legend:
VEGER = test system: VEGER; parameters: method as in PMID 30343204; details: Figure 1; cited from earlier work
MDA-MB-231 cell line = assay: MTT antiproliferative assay, MDA-MB-231; type: cell-based, human; details: for IC50: Homo sapiens, MDA-MB-231, 72 h, MTT
Experimental: (§1) The compounds were studied for antiproliferative activity by standard MTT dye-reduction assay. Cell cultures from MCF-10A, MCF-7 and MDAMB-231 cell lines were incubated for 72 h in the presence of the tested substances in a wide range of concentrations. At the MCF-10A and MDA-MB-231 cell lines, compound 4 was applied in the range from 0.5 to 100 µg/mL, and all others from 4 to 1000 µg/mL.
(§2) All breast cell lines (MCF-10A, MCF-7 and MDA-MB-231) were purchased from the American Type Culture Collection—ATCC (Manassas, VA, USA). The MCF-7 and MDA-MB-231 were cultivated in Dulbecco’s Modified Eagle’s Medium (DMEM) supplemented with 10% fetal bovine serum (FBS), 1% sodium pyruvate, 1% MEM nonessential amino acids (NEAA) without antibiotics. The nontumorigenic breast cell line (MCF-10A) was cultivated in DMEM medium (Sigma-Aldrich, St. Louis, MO, USA) supplemented with 10% FBS, 1% sodium pyruvate, 1% nonessential amino acids (NEAA), 20 ng/mL human epithelia growth factor (hEGF), 10 μg/mL insulin, and 0.5 μg/mL hydrocortisone without antibiotics. All cell lines were maintained in a humidified atmosphere with 5% CO2 at 37 °C.
(§3) Using the standard MTT dye-reduction assay, described by Mosmann the antiproliferative activity was tested. The method is based on the metabolism of the tetrazolium salt MTT to insoluble formazan. The formazan absorption was registered using a microplate reader at λ = 540 nm. The measured absorption is an indicator of cell viability and metabolic activity. Antiproliferative activities were expressed as IC50 values (concentrations required for 50% inhibition of cell growth), calculated using nonlinear regression analysis (GraphPad Software, San Diego, CA, USA).

BALB 3T3 cells = assay: 3T3 NRU phototoxicity test (irradiated); type: cell-based, mouse; details: CC50/PC50; PIF < 2 not phototoxic, ≥ 2 and < 5 probable phototoxicity, ≥ 5 phototoxic
Text: (§4) Some organic compounds exposed to sunlight can be converted into phototoxins as a result of light-induced changes in energy state or degradation of the molecule. The estimation of phototoxicity can serve as an indicator of the photostability of the studied thienopyrimidines when irradiated with UV light and as evidence that their effect on cells is only due to the cytotoxicity and not to phototoxicity. The compounds were studied for cytotoxicity by the 3T3 Neutral Red […] (NRU) phototoxicity test based on a comparison of the cytotoxicity of a chemical when tested in the presence and absence of noncytotoxic exposure to UVA/vis light. The cells were incubated with the test substances at a variable concentration: for compound 4 from 0.5 to 100 μg/mL, and for all the rest from 15 to 4000 μg/mL for 24 h.
(§5) The light source used was a light emitting diode (LED) matrix, an artificial solar light simulator Helios-iO, model LE-9ND55-H—5500K (SERIC Ltd., Tokyo, Japan).
(§6) BALB/3T3 cells were cultured in 75 cm^2 tissue-culture flasks in DMEM, 10% FBS, 2 mM glutamine and antibiotics (penicillin 100 U/mL and streptomycin 100 µg/mL) at 37 °C, 5% CO2 and 90% relative humidity. Cytotoxicity/phototoxicity was assessed by validated BALB/3T3 clone A31 Neutral Red Uptake Assay (3T3 NRU test). Briefly, cells were plated in a 96-well microtiter plate at a density of 1 × 10^4 cells/100 µL/well and were incubated for 24 h. A wide concentration range of the test compounds was applied. In phototoxicity tests, 96-well plates were irradiated with dose 2.4 J/cm^2 and the cells were incubated for additional 24 h. After treatment with Neutral Red medium, washing and treatment with the Ethanol/Acetic acid solution, the absorption was measured on a TECAN microplate reader (TECAN, Grödig, Austria) at wavelength 540 nm.
(§7) Cytotoxicity/phototoxicity were expressed as CC50/PC50 values (concentrations required for 50% cytotoxicity/phototoxicity), calculated using nonlinear regression analysis (GraphPad Software, Prism 8.0.2 (263), San Diego, CA, USA). The CC50 values can be used to calculate the PIF (photoirritancy factor) for each test substance, according to the following formula:PIF = Cytotoxicity (CC50)/Phototoxicity (PC50)(6)

[1] = 3T3 NRU phototoxicity test (irradiated); type: cell-based, mouse; details: mouse, BALB/3T3 clone A31 cells; BALB 3T3, irradiated 2.4 J/cm2, then 24 h; read-out: CC50 of Mean ± SD, Phototoxicity
Text: as §4, §5, §6, §7

[2] = 3T3 Neutral Red Uptake (NRU) cytotoxicity test; type: cell-based, mouse; details: mouse, BALB/3T3 clone A31 cells; for CC50 at 24 h: BALB 3T3, 24 h, no irradiation, read-out: CC50 of Mean ± SD, Cytotoxicity
MCF-7 cell line = assay: MTT antiproliferative assay, MCF-7; type: cell-based, human; details: Homo sapiens, MCF7
Experimental: as §1
The MCF-7 cell line was treated with compounds 2, 3 and 4 at concentrations from 0.5 to 100 µg/mL, and all others from 4 to 1000 µg/mL. The antiproliferative activity expressed in % relative to the negative control (untreated cells accepted as a 100% viable or 0% antiproliferative activity) was determined and shown on Figure 6.
as §2, §3

MCF-10A cell line = assay: MTT antiproliferative assay, MCF-10A; type: cell-based; details: Homo sapiens, 72 h
Experimental: as §1
In order to determine antitumor activity, as a reliable model and a control we used the MCF-10A cell line (normal human mammary epithelial cells).
as §2, §3

KDR = test system: KDR; parameters: method as in doi:10.1016/j.medidd.2019.100009; details: Figure 1; cited from earlier work
Tie-2 = test system: Tie-2; parameters: method as in PMID 19854647; details: Figure 1; read-out: Tie-2 cells IC50; cited from earlier work
EGFR = test system: EGFR; parameters: method as in PMID 31051400; details: cited from earlier work
FGFR1 = details: Figure 1; cited from earlier work
Aurora B kinase = molecular target: Aurora B kinase; parameters: method as in PMID 21778056; details: Figure 1; read-out: Aur B IC50; cited from earlier work
MCF-7 = details: results published earlier, read-out: IC50 (MCF-7) of lead compounds A and B; cited from earlier work
MDA-MB-231 = details: results published earlier, read-out: IC50 (MDA-MB-231) of lead compounds A and B; cited from earlier work
[3] = read-out: IC50 ± SD Antiproliferative Activity MDA-MB-231
[4] = MCF-7, 72 h, MTT, read-out: IC50 ± SD Antiproliferative Activity MCF-7
[5] = read-out: IC50 ± SD Antiproliferative Activity MCF-10A

SMILES: CC(=O)c1cccc(NC(=O)Nc2ccc(Nc3ncnc4sc5c(c34)CCCC5)cc2)c1 [VIII]
IC50 (VEGER): 1.5 µM

IC50 (MDA-MB-231 cell line; [3]): > 1000 µg/mL
IC50 (MCF-7 cell line; [4]): > 1000 µg/mL
melting point: 262 to 264 °C
SMILES: CCOC(=O)c1sc2nc(-c3ccccn3)nc(N)c2c1C [Compound 7, Ethyl 4-Amino-5-methyl-2-(pyridin—2-yl) Thieno[2,3-d]pyrimidine-6-carboxylate]
PIF (Photoirritancy factor) (BALB 3T3 cells): 1.08
CC50 at 24 h [1]: 2550 ± 75.1 µg/mL (≈ 8.12 mM)
CC50 at 24 h [2]: 2750 ± 64.3 µg/mL (≈ 8.76 mM)
IC50 at 24 h ([2]; BALB 3T3, converted from µg/mL, read-out: IC50 cytotoxicity against BALB 3T3): 8800 µM
IC50 (MCF-10A cell line; [5]): > 1000 µg/mL

SMILES: Cc1cccc(NC(=O)Nc2ccc(-c3csc4ncnc(N)c34)cc2)c1 [IV]
IC50 (KDR): 0.003 µM

SMILES: Cn1cnc(-c2cccc(NC(=O)Nc3cc(C(F)(F)F)ccc3F)c2)c1-c1cc2c(N)ncnc2s1 [I]
IC50 (Tie-2): 0.07 µM

SMILES: Fc1ccccc1Nc1ncnc2sc3c(c12)CCCC3 [X]
EGFR/HER2 inhibitory activity IC50 (in words) (EGFR): in the nanomolar range

SMILES: Oc1cccc(Nc2ncnc3scc(-c4ccccc4)c23)c1 [VI]
IC50 (FGFR1): 0.18 µM

IC50 (MDA-MB-231 cell line; read-out: IC50 Antiproliferative Activity MDA-MB-231 in µM (converted)): 56 µM
IC50 (MDA-MB-231 cell line; [3]): 18.3 ± 1.58 µg/mL
IC50 (MCF-7 cell line; MCF-7, 72 h, MTT, read-out: IC50 Antiproliferative Activity MCF-7 in µM (converted)): 13 µM
IC50 (MCF-7 cell line; [4]): 4.3 ± 0.11 µg/mL
melting point: 159 to 161 °C
SMILES: CCOC(=O)c1sc2nc(Cc3ccccc3)nc(N)c2c1C [Compound 2, Ethyl 4-Amino-2-benzyl-5-methyl-thieno[2,3-d]pyrimidine-6-carboxylate]
Selective Index MDA-MB-231 (MDA-MB-231 cell line; SI = IC50 of MCF-10A/IC50 of MDA-MB-231): 3.7
PIF (Photoirritancy factor) (BALB 3T3 cells): 1.9
CC50 at 24 h [1]: 632 ± 35.6 µg/mL (≈ 1.93 mM)
CC50 at 24 h [2]: 1210 ± 103 µg/mL (≈ 3.7 mM)
IC50 (MCF-10A cell line; read-out: IC50 Antiproliferative Activity MCF-10A (converted)): 210 µM
IC50 (MCF-10A cell line; [5]): 67.8 ± 9.1 µg/mL

SMILES: Cc1ccccc1NC(=O)NCc1cccc(NC(=O)c2csc3ncnc(N)c23)c1 [III]
IC50 (Aurora B kinase): 0.0038 µM

melting point: 241 to 242 °C
SMILES: CCOC(=O)c1sc2nc(-c3cccnc3)nc(N)c2c1C [Compound 8, Ethyl 4-Amino-5-methyl-2-(pyridin-3-yl)thieno [2,3-d]Pyrimidine-6-carboxylate]

IC50 (MCF-7 cell line; read-out: pCI50 in MCF-7 test (converted)): 0.0741 µM
SMILES: CCOC(=O)c1sc2nc(CCn3c(=N)n(CCc4nc5sc(C(=O)OC)c(C)c5c(=O)[nH]4)c4ccccc43)[nH]c(=O)c2c1C [A]
IC50 (MCF-7): 0.074 µM
IC50 (MDA-MB-231): 0.16 µM
